Measured values as given in ChEMBL document CHEMBL1152983, “Substitution of the arginine/leucine residues in apidaecin Ib with peptoid residues: effect on antimicrobial activity, cellular uptake, and proteolytic degradation” (J Med Chem, 2009).
In brackets after ≈: the same amount, converted by molar mass. Starred links: 1 amine or outer side, 2 acyl side, 3 side chain; linkers in the order of their positions; H or OH if unused. Non-standard residues stand in square brackets, D forms with d. Residues, ends and D or L forms follow the SMILES beside them. Gly(N-(CH2)3-guanidino) = N=C(N)NCCCNCC(=O)O; X1 = N=C(N)NCCN(CC(=O)[*:2])[*:1]; NhArg = N=C(N)NCCCCNCC(=O)O

Experiments:
[1] = Toxicity in human erythrocytes assessed as hemolytic activity at 300 uM after 60 mins; assay type: cell-based, Erythrocyte; details: read-out: Activity
[2] = test system: Escherichia coli; test: Antimicrobial activity against Escherichia coli O18K1H7 after 18 hrs by broth microdilution susceptibility test; assay type: functional; details: O18K1H7, 18 h
[3] = Toxicity in human erythrocytes assessed as hemolytic activity at 30 uM after 60 mins; assay type: cell-based, Erythrocyte; details: read-out: Activity
[4] = test system: Klebsiella pneumoniae; test: Antimicrobial activity against Klebsiella pneumoniae 22 after 18 hrs by broth microdilution susceptibility test; assay type: functional; details: Klebsiella pneumoniae, 22, 18 h
[5] = test system: Salmonella enterica subsp. enterica; test: Antimicrobial activity against Salmonella enteritidis D5 after 18 hrs by broth microdilution susceptibility test; assay type: functional, Salmonella enterica subsp. enterica serovar Enteritidis; details: D5, 18 h
[6] = Membrane permeabilization in eukaryotic membrane model consisting of single unilamellar vesicle of L-alpha-phosphatidylcholine-cholesterol assessed as 5(6)-carboxyfluorescein release at high peptide-to-lipid ratio after 50 mins by fluorescence assay; assay type: ADME, cell membranes
[7] = test system: Salmonella enterica subsp. enterica; test: Antimicrobial activity against Salmonella enteritidis PD1 after 18 hrs by broth microdilution susceptibility test; assay type: functional, Salmonella enterica subsp. enterica serovar Enteritidis; details: PD1, 18 h
[8] = test system: Salmonella enterica subsp. enterica; test: Antimicrobial activity against Salmonella Typhimurium ATCC 14028 after 18 hrs by broth microdilution susceptibility test; assay type: functional, Salmonella enterica subsp. enterica serovar Typhimurium; details: ATCC 14028, 18 h
[9] = test system: Escherichia coli; test: Antimicrobial activity against Escherichia coli ML35 after 18 hrs by broth microdilution susceptibility test; assay type: functional; details: ML35, 18 h
[10] = Membrane permeabilization in eukaryotic membrane model consisting of single unilamellar vesicle of L-alpha-phosphatidylcholine-cholesterol assessed as 5(6)-carboxyfluorescein release at high peptide-to-lipid ratio after 20 mins by fluorescence assay; assay type: ADME, cell membranes
[11] = test system: Escherichia coli; test: Antimicrobial activity against Escherichia coli ATCC 25922 after 18 hrs by broth microdilution susceptibility test; assay type: functional; details: ATCC 25922, 18 h
[12] = Chemical stability assessed as compound degradation at 2 mg/mL after 24 hrs by HPLC and ESI-MS analysis in presence of trypsin; assay type: physicochemical; details: isolated protein

Row | MIC [2] [µM] | MIC [4] [µM] | MIC [5] [µM] | Activity [6] | MIC [7] [µM] | MIC [8] [µM] | MIC [9] [µM] | Activity [10] | MIC [11] [µM] | Stability [12] | Compound | hemolysis at 1 h, 300 µM [1] [%] | hemolysis at 1 h, 30 µM [3] [%]
1 | > 128 | – | – | – | – | – | – | – | – | – | CC[C@H](C)[C@H](NC(=O)[C@H](Cc1ccc(O)cc1)NC(=O)[C@@H](NC(=O)[C@@H]1CCCN1C(=O)CN(CCCNC(=N)N)C(=O)[C@H](CC(N)=O)NC(=O)[C@H](CC(N)=O)NC(=O)CN)C(C)C)C(=O)N1CCC[C@H]1C(=O)N[C@@H](CCC(N)=O)C(=O)N1CCC[C@H]1C(=O)N(CCCNC(=N)N)CC(=O)N1CCC[C@H]1C(=O)N1CCC[C@H]1C(=O)N[C@@H](Cc1cnc[nH]1)C(=O)N1CCC[C@H]1C(=O)N(CCCNC(=N)N)CC(=O)N[C@@H](CC(C)C)C(=O)O (H-GNN[Gly(N-(CH2)3-guanidino)]PVYIPQP[Gly(N-(CH2)3-guanidino)]PPHP[Gly(N-(CH2)3-guanidino)]L-OH) | 0.06 | –
2 | 16 (≈ 33.7 µg/mL) | > 128 | 32 (≈ 67.5 µg/mL) | Not Active | 32 (≈ 67.5 µg/mL) | 16 (≈ 33.7 µg/mL) | 16 (≈ 33.7 µg/mL) | Not Active | 16 (≈ 33.7 µg/mL) | – | CC[C@H](C)[C@H](NC(=O)[C@H](Cc1ccc(O)cc1)NC(=O)[C@@H](NC(=O)[C@@H]1CCCN1C(=O)CN(CCCNC(=N)N)C(=O)[C@H](CC(N)=O)NC(=O)[C@H](CC(N)=O)NC(=O)CN)C(C)C)C(=O)N1CCC[C@H]1C(=O)N[C@@H](CCC(N)=O)C(=O)N1CCC[C@H]1C(=O)N[C@@H](CCCNC(=N)N)C(=O)N1CCC[C@H]1C(=O)N1CCC[C@H]1C(=O)N[C@@H](Cc1cnc[nH]1)C(=O)N1CCC[C@H]1C(=O)N[C@@H](CCCNC(=N)N)C(=O)N[C@@H](CC(C)C)C(=O)O (H-GNN[Gly(N-(CH2)3-guanidino)]PVYIPQPRPPHPRL-OH) | 0.06 | ≤ 2
3 | – | > 128 | – | Not Active | – | > 128 | – | Not Active | 128 (≈ 257 µg/mL) | – | CC[C@H](C)[C@H](NC(=O)[C@H](Cc1ccc(O)cc1)NC(=O)[C@@H](NC(=O)[C@@H]1CCCN1C(=O)[C@H](CCCNC(=N)N)NC(=O)[C@H](CC(N)=O)NC(=O)[C@H](CC(N)=O)NC(=O)CN)C(C)C)C(=O)N1CCC[C@H]1C(=O)N[C@@H](CCC(N)=O)C(=O)N1CCC[C@H]1C(=O)N[C@@H](CCCNC(=N)N)C(=O)N1CCC[C@H]1C(=O)N[C@@H](Cc1cnc[nH]1)C(=O)N1CCC[C@H]1C(=O)N[C@@H](CCCNC(=N)N)C(=O)N[C@@H](CC(C)C)C(=O)O (H-GNNRPVYIPQPRPHPRL-OH) | – | ≤ 2
4 | > 128 | > 128 | > 128 | Not Active | > 128 | > 128 | > 128 | Not Active | > 128 | – | CC[C@H](C)[C@H](NC(=O)[C@H](Cc1ccc(O)cc1)NC(=O)[C@@H](NC(=O)[C@@H]1CCCN1C(=O)[C@H](CCCNC(=N)N)NC(=O)[C@H](CC(N)=O)NC(=O)[C@H](CC(N)=O)NC(=O)CN)C(C)C)C(=O)N1CCC[C@H]1C(=O)N[C@@H](CCC(N)=O)C(=O)N1CCC[C@H]1C(=O)N[C@@H](CCCNC(=N)N)C(=O)N1CCC[C@H]1C(=O)N1CCC[C@H]1C(=O)N[C@@H](Cc1cnc[nH]1)C(=O)N1CCC[C@H]1C(=O)N(CCCCNC(=N)N)CC(=O)N[C@@H](CC(C)C)C(=O)O (H-GNNRPVYIPQPRPPHP[NhArg]L-OH) | 0.81 | ≤ 2
5 | > 128 | > 128 | > 128 | Not Active | > 128 | > 128 | > 128 | Not Active | > 128 | Stable | CC[C@H](C)[C@H](NC(=O)[C@H](Cc1ccc(O)cc1)NC(=O)[C@@H](NC(=O)[C@@H]1CCCN1C(=O)[C@H](CCCNC(=N)N)NC(=O)[C@H](CC(N)=O)NC(=O)[C@H](CC(N)=O)NC(=O)CN)C(C)C)C(=O)N1CCC[C@H]1C(=O)N[C@@H](CCC(N)=O)C(=O)N1CCC[C@H]1C(=O)N[C@@H](CCCNC(=N)N)C(=O)N1CCC[C@H]1C(=O)N1CCC[C@H]1C(=O)N[C@@H](Cc1cnc[nH]1)C(=O)N1CCC[C@H]1C(=O)N(CCCNC(=N)N)CC(=O)N[C@@H](CC(C)C)C(=O)O (H-GNNRPVYIPQPRPPHP[Gly(N-(CH2)3-guanidino)]L-OH) | 0.44 | ≤ 2
6 | 32 (≈ 67 µg/mL) | > 128 | 64 (≈ 134 µg/mL) | Not Active | 64 (≈ 134 µg/mL) | 32 (≈ 67 µg/mL) | 16 (≈ 33.5 µg/mL) | Not Active | 32 (≈ 67 µg/mL) | – | CC[C@H](C)[C@H](NC(=O)[C@H](Cc1ccc(O)cc1)NC(=O)[C@@H](NC(=O)[C@@H]1CCCN1C(=O)[C@H](CCCNC(=N)N)NC(=O)[C@H](CC(N)=O)NC(=O)[C@H](CC(N)=O)NC(=O)CN)C(C)C)C(=O)N1CCC[C@H]1C(=O)N[C@@H](CCC(N)=O)C(=O)N1CCC[C@H]1C(=O)N(CCNC(=N)N)CC(=O)N1CCC[C@H]1C(=O)N1CCC[C@H]1C(=O)N[C@@H](Cc1cnc[nH]1)C(=O)N1CCC[C@H]1C(=O)N[C@@H](CCCNC(=N)N)C(=O)N[C@@H](CC(C)C)C(=O)O (H-GNNRPVYIPQP[X1]PPHPRL-OH) | 0.87 | ≤ 2
